The values below are quoted from earlier work in patent US11389412B2, “Curcuminoid chlorophyllin (CHL) compositions and methods of preparation and use” (InovoBiologic Inc., priority 2017, dated 2022).

For this data set the following is noted: composition of curcuminoid mixture and essential oil arturmerone, U.S. Pat. No. 7,883,728.

As to `COc1cc(C=CC(=O)CC(=O)C=Cc2ccc(O)c(OC)c2)ccc1O` [curcumin, 1,7bis (4-hydroxy-3-methoxy phenyl)-1,6 heptadiene-3,5-dione], the “bioavailability of curcumin in human, maximum” value is given as “about 93 ng/g”.
